{"source": "paper PMC5962653", "about": "(Frontiers in Microbiology, 2018)", "type_in_all_cases": "cell-based, Klebsiella pneumoniae", "key": {"[1]": {"test_system": "K. pneumoniae KPC-3 producer", "details": "colistin 2 mg/L (EUCAST breakpoint), rifampin 2 mg/L, alone or combined; inoculum 1 × 10^6 cfu/mL, 37°C, samples 0-24 h; three experiments", "experimental": "(§1) (2016)]. […] Tubes were incubated at 37°C, with shaking, and samples were taken at 0, 1, 3, 6, and 24 h, serially diluted and plated using a spiral platter (Eddy Jet, IUL S.A., Barcelona, Spain). Bacterial colonies were counted using an automatic counter (Flash & Go, IUL S.A., Barcelona, Spain) ([Pournaras et al., 2011]; [Souli et al., 2011]). Experiments were performed three times on separate occasions. […] Bactericidal activities of single antibiotics or combination were defined as a decrease ≥ 3 log10 cfu/mL from the starting inoculum ([Souli et al., 2009]). Studies were performed in triplicate.\n(§2) The RIF concentration used for all strains was 2 mg/L. RIF, filled circles; CST, filled squares; combination of both antimicrobials, filled triangles."}, "[2]": {"test_system": "K. pneumoniae OXA-48 plus CTX-M-15 producer", "details": "at 24 h; colistin 0.5 mg/L", "experimental": "as §1, §2"}, "[3]": {"test_system": "K. pneumoniae VIM-1/DHA-1 producer", "details": "colistin 2 mg/L (EUCAST breakpoint), rifampin 2 mg/L, alone or combined; inoculum 1 × 10^6 cfu/mL, 37°C, samples 0-24 h; three experiments", "experimental": "as §1, §2"}, "[4]": {"test_system": "K. pneumoniae VIM-1 producer", "experimental": "as §1, §2"}, "[5]": {"test_system": "K. pneumoniae Kp07, VIM-1 producer", "experiment": "MIC by broth microdilution (agar dilution for fosfomycin)", "details": "for MIC: broth microdilution", "excerpt": "(§3) Four genetically unrelated clinical isolates of CP-Kp were studied: Kp07, a VIM-1 ST 1603 clone producer ([Miro et al., 2013]); Kp21, which co-produced VIM-1 and the acquired AmpC type beta-lactamase DHA-1 ST 11 clone ([Miro et al., 2013]); Kp28, co-producing OXA-48 ST11 clone and the extended spectrum beta-lactamase (ESBL) CTX-M-15 ([Oteo et al., 2015]); and Kp29, co-producing KPC-3 ST512 clone with the broad spectrum beta-lactamases TEM-1 and SHV-11 ([Lopez-Cerero et al., 2014]), thereinafter VIM-1, VIM-1/DHA-1, OXA-48 plus CTX-M-15, and KPC-3 producers, respectively. Identification of these isolates was confirmed by a Microflex LT-MALDI Biotyper mass spectrometer (Bruker Daltonics GmbH, Bremen, Germany). The presence of carbapenemase genes, and genes coding for other beta-lactamases was confirmed by PCR and sequencing as described previously. The absence of genetic relation among the isolates was confirmed by PFGE analysis of chromosomal restriction fragments obtained after XbaI cleavage following the criteria of [Tenover et al. (1995)]. […] The antibiotic susceptibility profiles are included in the Supplementary Information.\n(§4) MICs of antibiotics were determined by broth microdilution as recommended by the [Clinical and Laboratory Standards Institute [CLSI] (2012)], using Mueller Hinton broth II (MHB) (Becton Dickinson & Co., Sparks, MD, United States) and agar dilution method for fosfomycin. MIC results were interpreted according to the [European Committee on Antimicrobial Susceptibility Testing [EUCAST] (2016)]^1 breakpoints. Studies were performed in triplicate."}, "[6]": {"test_system": "K. pneumoniae Kp21, VIM-1/DHA-1 producer", "experiment": "MIC by broth microdilution (agar dilution for fosfomycin)", "details": "for MIC: broth microdilution", "excerpt": "as §3, §4"}, "[7]": {"test_system": "K. pneumoniae Kp28, OXA-48 plus CTX-M-15 producer", "experiment": "MIC by broth microdilution (agar dilution for fosfomycin)", "details": "for MIC: broth microdilution", "excerpt": "as §3, §4"}, "[8]": {"test_system": "K. pneumoniae Kp29, KPC-3 producer", "experiment": "MIC by broth microdilution (agar dilution for fosfomycin)", "details": "for MIC: broth microdilution", "excerpt": "as §3, §4"}, "[9]": {"test_system": "K. pneumoniae VIM-1 producer (colistin-susceptible)", "experiment": "In vitro selection of colistin-resistant mutants (time-kill curves)", "details": "exposure at the MIC (0.5 mg/L) during 24 h in time-kill curves; sub-cultured twice antimicrobial free; increased from 0.5 mg/L", "experimental": "(§5) MICs determinations of colistin and rifampin were carried out in triplicate."}, "[10]": {"test_system": "K. pneumoniae OXA-48 plus CTX-M-15 producer (colistin-susceptible)", "experiment": "In vitro selection of colistin-resistant mutants (time-kill curves)", "details": "exposure at the MIC (0.5 mg/L) during 24 h in time-kill curves; sub-cultured twice antimicrobial free; increased from 0.5 mg/L", "experimental": "as §5"}, "[11]": {"details": "Table 1, Mueller Hinton broth II, CLSI, triplicate"}}, "note": "Positions of bridges follow the written chain, without caps; N, C: chain ends. Non-standard residues stand in square brackets, D forms with d. Residues, ends and D or L forms follow the SMILES beside them. *: point of attachment. X1 = CC[C@H](C)CCCCC(=O)*; Dab = NCC[C@H](N)C(=O)O"}
{"smiles": "CC[C@H](C)CCCCC(=O)N[C@@H](CCN)C(=O)N[C@H](C(=O)N[C@@H](CCN)C(=O)N[C@H]1CCNC(=O)[C@H]([C@@H](C)O)NC(=O)[C@H](CCN)NC(=O)[C@H](CCN)NC(=O)[C@H](CC(C)C)NC(=O)[C@@H](CC(C)C)NC(=O)[C@H](CCN)NC1=O)[C@@H](C)O", "note": "[Colistin, colistin] (X1-[Dab]T[Dab][Dab][Dab][dL]L[Dab][Dab]T; lactam 4-C (inferred); N-terminus assumed)", "values": [{"measurement": "Bactericidal activity in time-kill curves (decrease ≥ 3 log10 cfu/mL from the starting inoculum)", "setting": "[1]", "value": "did not display any bactericidal activity"}, {"measurement": "Regrowth in time-kill curves", "setting": "[2]", "value": "important regrowth at 24 h"}, {"measurement": "Bactericidal activity in time-kill curves (decrease ≥ 3 log10 cfu/mL from the starting inoculum)", "setting": "[3]", "value": "did not display any bactericidal activity"}, {"measurement": "Regrowth in time-kill curves", "setting": "[4]; at 24 h, colistin 0.5 mg/L", "value": "important regrowth at 24 h"}, {"measurement": "Bactericidal activity in time-kill curves (decrease ≥ 3 log10 cfu/mL from the starting inoculum)", "setting": "[4]; colistin 0.5 mg/L (MIC), rifampin 2 mg/L, alone or combined, inoculum 1 × 10^6 cfu/mL, 37°C, samples 0-24 h, three experiments", "value": "bactericidal at 3 h"}, {"measurement": "MIC", "setting": "[5]; [11]", "value": "0.5 [^∗] mg/L"}, {"measurement": "SIR, classification according to EUCAST definitions", "setting": "[5]; supplement table, strain KPc07, EUCAST 2016 breakpoints, fosfomycin by agar dilution", "value": "S"}, {"measurement": "MIC", "setting": "[5]; supplement table, strain KPc07", "value": 0.5, "unit": "mg/L"}, {"measurement": "MIC", "setting": "[6]; [11]", "value": "64 [^∗∗] mg/L"}, {"measurement": "SIR, classification according to EUCAST definitions", "setting": "[6]; supplement table, strain KPc21, EUCAST 2016 breakpoints, fosfomycin by agar dilution", "value": "R"}, {"measurement": "MIC", "setting": "[6]; supplement table, strain KPc21", "value": "> 32", "unit": "mg/L"}, {"measurement": "MIC", "setting": "[7]; [11]", "value": "0.5 [^∗] mg/L"}, {"measurement": "SIR, classification according to EUCAST definitions", "setting": "[7]; supplement table, strain KPc28, EUCAST 2016 breakpoints, fosfomycin by agar dilution", "value": "S"}, {"measurement": "MIC", "setting": "[7]; supplement table, strain KPc28", "value": 0.5, "unit": "mg/L"}, {"measurement": "MIC", "setting": "[8]; [11]", "value": "32 [^∗∗] mg/L"}, {"measurement": "SIR, classification according to EUCAST definitions", "setting": "[8]; supplement table, strain KPc29, EUCAST 2016 breakpoints, fosfomycin by agar dilution", "value": "R"}, {"measurement": "MIC", "setting": "[8]; supplement table, strain KPc29", "value": "> 32", "unit": "mg/L"}, {"measurement": "Colistin MIC of colonies recovered after exposure to colistin", "setting": "[9]", "value": "> 8", "unit": "µg/mL"}, {"measurement": "Colistin MIC of colonies recovered after exposure to colistin", "setting": "[10]", "value": "> 8", "unit": "µg/mL"}]}
